Patent publication US20240270762A1, “PENICILLIN-BINDING PROTEIN INHIBITORS” (priority 2021, published 2024)
Values after ≈ are worked out from the molar mass of the structure shown.

Assays:
A. baumannii PBP1a = target: T1, A. baumannii PBP1a (Acinetobacter baumannii, UniProt A0ABX6CK30); assay: Bocillin-FL competition binding via gel filtration, A. baumannii PBP1a; conditions: competition binding assay using Bocillin-FL via gel filtration; read-out: A. baumannii PBP1a Potency
T1 sequence (A0ABX6CK30 1-851): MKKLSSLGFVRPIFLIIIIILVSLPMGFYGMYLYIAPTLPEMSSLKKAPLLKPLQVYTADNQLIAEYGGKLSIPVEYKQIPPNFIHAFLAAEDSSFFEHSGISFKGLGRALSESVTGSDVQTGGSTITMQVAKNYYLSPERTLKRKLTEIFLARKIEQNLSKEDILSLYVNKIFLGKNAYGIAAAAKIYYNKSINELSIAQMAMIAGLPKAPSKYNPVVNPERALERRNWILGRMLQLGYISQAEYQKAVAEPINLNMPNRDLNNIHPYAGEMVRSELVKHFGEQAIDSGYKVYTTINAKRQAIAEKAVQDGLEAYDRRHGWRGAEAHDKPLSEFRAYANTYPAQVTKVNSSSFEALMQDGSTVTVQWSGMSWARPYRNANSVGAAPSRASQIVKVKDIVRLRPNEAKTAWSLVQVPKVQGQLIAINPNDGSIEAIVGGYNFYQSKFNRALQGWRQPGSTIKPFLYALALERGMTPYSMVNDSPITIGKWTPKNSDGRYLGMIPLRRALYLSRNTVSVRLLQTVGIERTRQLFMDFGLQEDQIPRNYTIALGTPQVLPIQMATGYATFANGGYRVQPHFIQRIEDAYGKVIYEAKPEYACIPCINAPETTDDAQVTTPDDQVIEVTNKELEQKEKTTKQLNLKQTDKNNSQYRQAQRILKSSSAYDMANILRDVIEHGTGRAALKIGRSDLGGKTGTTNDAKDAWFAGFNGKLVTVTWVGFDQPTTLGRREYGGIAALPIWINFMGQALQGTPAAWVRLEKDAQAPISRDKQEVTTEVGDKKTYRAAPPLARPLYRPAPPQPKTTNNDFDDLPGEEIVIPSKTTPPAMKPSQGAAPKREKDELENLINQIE
Method in brief: (§1)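 Competitive equilibrium binding with Bocillin-FL reporter: PBP pre-incubated with inhibitor dilutions, Bocillin-FL added, 15 min incubation. Labelled enzyme isolated by size-exclusion spin plates, fluorescence measured; EC50 obtained by fitting bound fraction against inhibitor concentration with a Hill-coefficient model.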

A. baumannii PBP2 = A. baumannii PBP2 (Acinetobacter baumannii, UniProt D0C8Z9); assay: Bocillin-FL competition binding via gel filtration, A. baumannii PBP2
Method in brief: as §1

P. aeruginosa ATCC 27853 = assay: microbe, parasite or virus in culture; format: cell-based; conditions: Pseudomonas aeruginosa, ATCC27853, read-out: Minimum inhibitory concentration, P. aeruginosa ATCC 27853
P. aeruginosa ATCC 35151 = assay: microbe, parasite or virus in culture; format: cell-based; conditions: Pseudomonas aeruginosa, ATCC35151, read-out: Minimum inhibitory concentration, P. aeruginosa ATCC 35151
[1] = tested on: P. aeruginosa (ΔmexAB-oprM); assay: Broth microdilution MIC in iron-depleted CAMHB (IDM); format: cell-based; conditions: Pseudomonas aeruginosa, read-out: Minimum inhibitory concentration, P. aeruginosa ΔmexAB-oprM
P. aeruginosa CDC-0054 = assay: microbe, parasite or virus in culture; format: cell-based; conditions: Pseudomonas aeruginosa, CDC0054, read-out: Minimum inhibitory concentration, P. aeruginosa CDC-0054
P. aeruginosa CDC-0090 = assay: microbe, parasite or virus in culture; format: cell-based; conditions: Pseudomonas aeruginosa, CDC0090, read-out: Minimum inhibitory concentration, P. aeruginosa CDC-0090
P. aeruginosa CDC-0095 = assay: microbe, parasite or virus in culture; format: cell-based; conditions: Pseudomonas aeruginosa, CDC0095, read-out: Minimum inhibitory concentration, P. aeruginosa CDC-0095
[2] = tested on: B. thailandensis ATCC 700388; assay: microbe, parasite or virus in culture; format: cell-based; conditions: Burkholderia thailandensis, ATCC700388, read-out: Minimum inhibitory concentration (MIC), B. thailandensis ATCC 700388
[3] = tested on: B. humptydooensis ATCC BAA-2767; assay: microbe, parasite or virus in culture; format: cell-based; conditions: Burkholderia humptydooensis, ATCCBAA2767, read-out: Minimum inhibitory concentration (MIC), B. humptydooensis ATCC BAA-2767
P. aeruginosa CDC-0110 = assay: microbe, parasite or virus in culture; format: cell-based; conditions: Pseudomonas aeruginosa, CDC0110, read-out: Minimum inhibitory concentration, P. aeruginosa CDC-0110
B. pseudomallei Bp82 = assay: microbe, parasite or virus in culture; format: cell-based; conditions: Burkholderia pseudomallei, BP82, read-out: Minimum inhibitory concentration, B. pseudomallei Bp82

Chain of A. baumannii PBP2 (D0C8Z9 whole entry): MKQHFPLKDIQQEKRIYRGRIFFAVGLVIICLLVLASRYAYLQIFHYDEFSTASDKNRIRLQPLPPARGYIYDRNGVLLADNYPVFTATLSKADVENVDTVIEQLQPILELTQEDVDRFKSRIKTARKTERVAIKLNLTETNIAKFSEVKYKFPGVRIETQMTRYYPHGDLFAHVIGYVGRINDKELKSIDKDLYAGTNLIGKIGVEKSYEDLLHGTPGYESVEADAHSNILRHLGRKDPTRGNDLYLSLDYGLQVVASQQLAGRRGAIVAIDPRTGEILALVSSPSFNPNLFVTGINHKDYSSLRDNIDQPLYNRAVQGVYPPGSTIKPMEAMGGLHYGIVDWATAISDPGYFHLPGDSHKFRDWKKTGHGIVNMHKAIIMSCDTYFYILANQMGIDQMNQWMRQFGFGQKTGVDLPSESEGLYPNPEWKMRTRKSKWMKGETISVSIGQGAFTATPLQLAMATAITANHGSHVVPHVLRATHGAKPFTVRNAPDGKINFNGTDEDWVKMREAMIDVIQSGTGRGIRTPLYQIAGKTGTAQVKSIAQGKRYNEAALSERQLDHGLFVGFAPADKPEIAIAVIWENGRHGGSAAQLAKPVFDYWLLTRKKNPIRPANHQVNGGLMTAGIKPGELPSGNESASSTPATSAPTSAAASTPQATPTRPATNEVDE

Row | SMILES | EC50 (A. baumannii PBP1a) [µM] | EC50 (A. baumannii PBP2) [µM] | MIC (P. aeruginosa ATCC 27853) [µg/mL] | MIC (P. aeruginosa ATCC 35151) [µg/mL] | MIC [1] [µg/mL] | MIC (P. aeruginosa CDC-0054) [µg/mL] | MIC (P. aeruginosa CDC-0090) [µg/mL] | MIC (P. aeruginosa CDC-0095) [µg/mL] | MIC [2] [µg/mL] | MIC [3] [µg/mL] | MIC (P. aeruginosa CDC-0110) [µg/mL] | MIC (B. pseudomallei Bp82) [µg/mL]
1 | NCc1ccc(C(=O)N2CCC(N3CCN(C(=O)NC(C(=O)N[C@H]4Cc5ccc(F)c(C(=O)O)c5OB4O)c4cc(F)c(O)c(O)c4Cl)C3=O)CC2)cc1O (single isomer, unassigned) [Example 616] | 10 to 50 | 10 to 50 | < 1 | < 1 | < 1 | < 1 | < 1 | < 1 | 2 to 4 (≈ 2.54 to 5.08 µM) | < 1 | < 1 | 
2 | NCc1cc(O)cc(CN2CCC(N3CCN(C(=O)N[C@@H](C(=O)N[C@H]4Cc5ccc(F)c(C(=O)O)c5OB4O)c4cc(F)c(O)c(O)c4Cl)C3=O)CC2)c1 (single isomer, unassigned) [Example 617] | 10 to 50 | 50 to 250 | < 1 | < 1 | < 1 | < 1 | < 1 | < 1 | < 1 | < 1 | < 1 | < 1
3 | NCc1ccc(C(=O)N2CCC(N3CCN(C(=O)NC(C(=O)N[C@H]4Cc5ccc(F)c(C(=O)O)c5OB4O)c4cc(F)c(O)c(O)c4Cl)C3=O)CC2)cc1 (single isomer, unassigned) [Example 604] | 10 to 50 | 10 to 50 | < 1 | < 1 | < 1 | < 1 | < 1 | 2 to 4 (≈ 2.59 to 5.19 µM) | < 1 | < 1 | < 1 | 
4 | O=C(O)c1c(F)ccc2c1OB(O)[C@@H](NC(=O)[C@H](NC(=O)N1CCN(C3CCN(Cc4cncc(O)c4)CC3)C1=O)c1cc(F)c(O)c(O)c1Cl)C2 (single isomer, unassigned) [Example 614] | 10 to 50 | 10 to 50 | < 1 | < 1 | < 1 | 2 to 4 (≈ 2.68 to 5.37 µM) | < 1 | 2 to 4 (≈ 2.68 to 5.37 µM) | < 1 | < 1 | < 1 | < 1
5 | O=C(O)c1c(F)ccc2c1OB(O)[C@@H](NC(=O)[C@@H](NC(=O)N1CCN(C3CCN(S(=O)(=O)c4ccc5[nH]nnc5c4)CC3)C1=O)c1cc(F)c(O)c(O)c1Cl)C2 (single isomer, unassigned) [Example 620] | < 10 | < 10 | 2 to 4 (≈ 2.44 to 4.88 µM) | < 1 | < 1 | 2 to 4 (≈ 2.44 to 4.88 µM) | 2 to 4 (≈ 2.44 to 4.88 µM) | > 128 | > 128 | > 128 | > 128 | 
6 | O=C(O)c1c(F)ccc2c1OB(O)[C@@H](NC(=O)[C@H](NC(=O)N1CCN(C3CCN(Cc4ccnnc4)CC3)C1=O)c1cc(F)c(O)c(O)c1Cl)C2 [Example 601, (R)-3-((R)-2-(2-chloro-5-fluoro-3,4-dihydroxyphenyl)-2-(2-oxo-3-(1-(pyridazin-4-ylmethyl)piperidin-4-yl)imidazolidine-1-carboxamido)acetamido)-7-fluoro-2-hydroxy-3,4-dihydro-2H-benzo[e][1,2]oxaborinine-8-carboxylic acid] | < 10 | 10 to 50 | < 1 | < 1 | < 1 | < 1 | 2 to 4 (≈ 2.74 to 5.48 µM) | 2 to 4 (≈ 2.74 to 5.48 µM) | < 1 | < 1 | < 1 | 
7 | Nc1ccc(CN2CCC(N3CCN(C(=O)N[C@@H](C(=O)N[C@H]4Cc5ccc(F)c(C(=O)O)c5OB4O)c4cc(F)c(O)c(O)c4Cl)C3=O)CC2)cn1 (single isomer, unassigned) [Example 618] | 10 to 50 | 10 to 50 | < 1 | < 1 | < 1 | < 1 | < 1 | 2 to 4 (≈ 2.69 to 5.38 µM) | < 1 | < 1 | < 1 | < 1
8 | O=C(O)c1c(F)ccc2c1OB(O)[C@@H](NC(=O)[C@H](NC(=O)N1CCN(C3CCN(Cc4ccncn4)CC3)C1=O)c1cc(F)c(O)c(O)c1Cl)C2 [Example 602, (R)-3-((R)-2-(2-chloro-5-fluoro-3,4-dihydroxyphenyl)-2-(2-oxo-3-(1-(pyrimidin-4-ylmethyl)piperidin-4-yl)imidazolidine-1-carboxamido)acetamido)-7-fluoro-2-hydroxy-3,4-dihydro-2H-benzo[e][1,2]oxaborinine-8-carboxylic acid] | < 10 | 10 to 50 | < 1 | < 1 | < 1 | < 1 | < 1 | 2 to 4 (≈ 2.74 to 5.48 µM) | < 1 | < 1 | < 1 | < 1
